Experimental data taken from patent US11926620B1, “1-Cyclopropyl-6-fluoro-4-oxo-7-(4-((2-thioxobenzo[d]oxazol-3(2H)-yl)methyl)piperazin-1-yl)-1,4-dihydroquinoline-3-carboxylic acid as an antimicrobial and anticancer compound” (KING FAISAL UNIVERSITY, priority 2023, dated 2024).

Experiments:
[1] = system: human prostate cancer cells (PC3); experiment: Cytotoxicity by SRB assay, PC3; type: cell-based; conditions: 0.01 μM to 100 μM for 72 h, result in words
Protocol: (§1) The human prostate cancer cells (PC3) and human osteosarcoma cells (MG-63) were obtained from Nawah Scientific Inc. (Mokatam, Cairo, Egypt) and cultured in DMEM (Dulbecco's modified eagle's medium), Gibco, USA, supplemented with fetal bovine serum (FBS) at a concentration of 10% and 100 U/mL of penicillin and streptomycin (PS). The Cells were incubated at 37° C. in a humidified environment that contained 5% CO2. Cells were seeded in 96-well plates as aliquots of 100 μL cell suspension and incubated in a complete media for 24 h. afterward, cells were treated with 1-Cyclopropyl-6-fluoro-4-oxo-7-(4-((2-thioxobenzo[d]oxazol-3(2H)-yl)methyl)piperazin-1-yl)-1,4-dihydroquinoline-3-carboxylic acid at diverse concentrations ranging from 0.01 μM to 100 μM for 72 h. Then, cells were fixed at 4° C. for one hour with 150 μL of 10% trichloroacetic acid (TCA). […] Then, 150 μL of Tris pH 10.5 (10 mM) was added, and the absorbance was measured at 540 nm using a BMG LABTECH®-FLUOstar Omega microplate reader (Ortenberg, Germany). Half maximal inhibitory concentrations (IC50) values were calculated for each experiment using GraphPad Prism 6 software. […] The inhibition was calculated using the following equation: Inhibition %=100−Average Viability

[2] = system: human osteosarcoma cells (MG-63); experiment: Cytotoxicity by SRB assay, MG-63; type: cell-based; conditions: MG-63 cells, 0.01 μM to 100 μM for 72 h, result in words
Protocol: as §1

Bacillus cereus = experiment: Agar plate disc-diffusion, Bacillus cereus; type: cell-based; conditions: gram positive Bacillus cereus; disc 10 μL of 10 mg/mL in DMSO, 37° C., 48 h; result in words
Protocol: (§2) The antimicrobial properties of the synthesized compounds were studied by the method of agar plate disc-diffusion. Sterilized filter papers (6 mm in diameter) were wetted with 10 μL of a solution of each compound to be tested, containing 10 mg/mL in DMSO, and the discs were allowed to air dry. The discs were then placed onto the surface of agar plates (nutrient agar for bacteria and Sabouraud's dextrose agar for fungi) seeded with the test organism. Each plate contained 15 mL of the agar medium, previously seeded with 0.2 mL of the broth culture of each organism pregrown for 18 h. The plates were incubated at 37° C. for 48 h, and 72 h for fungi. The inhibition zones were measured in mm. Discs impregnated with DMSO were used as a control, and its inhibition zone was subtracted from the tested compound actual inhibition zone.

Staphylococcus aureus = experiment: Agar plate disc-diffusion, Staphylococcus aureus; type: cell-based; conditions: gram positive Staphylococcus aureus; disc 10 μL of 10 mg/mL in DMSO, 37° C., 48 h; result in words
Protocol: as §2

Pseudomonas aeruginosa = experiment: Agar plate disc-diffusion, Pseudomonas aeruginosa; type: cell-based; conditions: gram-negative Pseudomonas aeruginosa; disc 10 μL of 10 mg/mL in DMSO, 37° C., 48 h; result in words
Protocol: as §2

Escherichia coli = experiment: Agar plate disc-diffusion, Escherichia coli; type: cell-based; conditions: gram-negative Escherichia coli; disc 10 μL of 10 mg/mL in DMSO, 37° C., 48 h; result in words
Protocol: as §2

Aspergillus flavus = experiment: Agar plate disc-diffusion, Aspergillus flavus; type: cell-based; conditions: disc 10 μL of 10 mg/mL in DMSO, 72 h, result in words
Protocol: as §2

[3] = system: Chrysosporium keratinophilum; experiment: Agar plate disc-diffusion, Chrysosporium keratinophilum; type: cell-based; conditions: disc 10 μL of 10 mg/mL in DMSO, 72 h, result in words
Protocol: as §2

- melting point: 187 to 189 °C
Structure (SMILES): O=C(O)c1cn(C2CC2)c2cc(N3CCN(Cn4c(=S)oc5ccccc54)CC3)c(F)cc2c1=O [1-cyclopropyl-6-fluoro-4-oxo-7-(4-((2-thioxobenzo[d]oxazol-3(2H)-yl)methyl)piperazin-1-yl)-1,4-dihydroquinoline-3-carboxylic acid]
- antiproliferative activity [1]: excellent antiproliferative activities
- antiproliferative activity [2]: excellent antiproliferative activities
- antibacterial activity (Bacillus cereus): excellent antimicrobials activities
- antibacterial activity (Staphylococcus aureus): excellent antimicrobials activities
- antibacterial activity (Pseudomonas aeruginosa): excellent antimicrobials activities
- antibacterial activity (Escherichia coli): excellent antimicrobials activities
- antifungal activity (Aspergillus flavus): excellent antimicrobials activities
- antifungal activity [3]: excellent antimicrobials activities
